Reference: patent US8013006B2
Like-named read-outs stand apart in the source and are kept apart here.

How the values were obtained:
HCV replicon = experiment: microbe, parasite or virus in culture; type: cell-based; conditions: Hepatitis C virus, 48 h

SMILES	melting point [°C]	IC50 (HCV replicon; read-out: Replicon IC5Os μM) [µM]	IC50 (HCV replicon; read-out: Replicon IC5Os) [µM]
CCOc1ccc2c(C#N)c(-c3ccc(N(C)S(C)(=O)=O)cc3)n(C)c2c1	203 to 205	–	–
CCCOC(=O)Nc1ccc(-c2c(C#N)c3ccc(OC(F)F)cc3n2CC2CC2)cc1	125 to 126	–	–
CCn1c(-c2ccc3c(c2)OCO3)c(C#N)c2ccc(OC)cc21 [Compound 22]	146 to 149	0.5 to 2	–
CCn1c(NC(=O)c2cccc(C)c2)c(C#N)c2ccc(OC)cc21 [Compound 23]	234 to 235	< 0.5	–
CCn1c(NC(C)=O)c(C#N)c2ccc([N+](=O)[O-])cc21 [Compound 25, N-(3-cyano-1-ethyl-6-nitro-1H-indol-2-yl)acetamide]	291 to 293	> 2	–
COc1ccc(-n2cc(C(C)=O)c3ccc(OC)cc32)cc1 [Compound 48]	138 to 142	0.5 to 2	–
CCn1c(C#Cc2ccc(N)cc2)c(C#N)c2ccc(OC)cc21 [Compound 69]	163 to 166	0.5 to 2	–
CCn1c(-c2ccc(NC(=O)C3CC3)cc2)c(C#N)c2ccc(OC)cc21 [Compound 81]	209 to 211	< 0.5	–
CCC(=O)Nc1ccc(C#Cc2c(C#N)c3ccc(OC)cc3n2CC)cc1 [Compound 82]	223 to 228	0.5 to 2	–
CCCn1c(-c2ccc(NS(=O)(=O)CC)cc2)c(C#N)c2ccc(OC)cc21 [Compound 85]	163 to 165	< 0.5	–
CCS(=O)(=O)Nc1ccc(-c2c(C#N)c3ccc(OC)cc3n2C2CCC2)cc1 [Compound 86]	158 to 160	< 0.5	–
CCn1c(-c2ccc(NS(=O)(=O)C(C)C)cc2)c(C#N)c2ccc(OC)cc21 [Compound 88]	209 to 213	0.5 to 2	–
CCn1c(C#Cc2ccccc2)c(C#N)c2ccc(C(N)=O)cc21 [Compound 94]	262 to 265	0.5 to 2	–
CCn1c(C#Cc2cccc(OC)c2)c(C#N)c2ccc(C(N)=O)cc21 [Compound 95]	248 to 251	0.5 to 2	–
CCn1c(C#Cc2ccc(N)cc2)c(C#N)c2ccc(C(N)=O)cc21 [Compound 96]	243 to 250	0.5 to 2	–
COc1ccc(-n2cc(C#N)c3ccc(Cl)cc32)cc1 [Compound 119]	126 to 128	0.5 to 2	–
CCn1c(C#Cc2ccc(NS(=O)(=O)CC)cc2)c(C#N)c2ccc(OC)cc21 [Compound 131]	199 to 204	0.5 to 2	–
CCn1c(C#Cc2ccc(NS(=O)(=O)C(C)C)cc2)c(C#N)c2ccc(OC)cc21 [Compound 132]	209 to 212	0.5 to 2	–
CCn1c(C#Cc2ccccc2Cl)c(C#N)c2ccc(OC)cc21 [Compound 134]	155 to 157	0.5 to 2	–
CCn1c(C#Cc2ccc(NC(=O)COC)cc2)c(C#N)c2ccc(OC)cc21 [Compound 139]	191 to 195	0.5 to 2	–
CCn1c(C#Cc2cccc(C)c2)c(C#N)c2ccc(OC)cc21 [Compound 144]	97 to 100	0.5 to 2	–

SMILES	melting point [°C]	IC50 (HCV replicon; read-out: Replicon IC5Os μM) [µM]	IC50 (HCV replicon; read-out: Replicon IC5Os) [µM]
CCn1c(C#Cc2ccc(C(C)(C)C)cc2)c(C#N)c2ccc(OC)cc21 [Compound 145]	110 to 113	0.5 to 2	–
CCn1c(C#Cc2ccc(NC(=O)C3CCC3)cc2)c(C#N)c2ccc(OC)cc21 [Compound 153]	225 to 228	0.5 to 2	–
CCn1c(C#Cc2ccc(CNS(=O)(=O)CC)cc2)c(C#N)c2ccc(OC)cc21 [Compound 157, Ethanesulfonic acid [4-(3-cyano-1-ethyl-6-methoxy-1H-indol-2-ylethynyl)-phenyl]methyl amide]	149 to 153	–	–
CCn1c(C#Cc2ccc(CC#N)cc2)c(C#N)c2ccc(OC)cc21 [Compound 161]	174 to 176	0.5 to 2	–
CCn1c(C#Cc2ccc(O)cc2)c(C#N)c2ccc(OC)cc21 [Compound 172]	221 to 223	0.5 to 2	–
CCn1c(C#Cc2cccc(N)c2)c(C#N)c2ccc(OC)cc21 [Compound 173]	150 to 153	0.5 to 2	–
CCn1c(C#Cc2ccc3c(c2)OCCO3)c(C#N)c2ccc(OC)cc21 [Compound 175]	132 to 135	0.5 to 2	–
CCn1c(C#Cc2ccc(C(F)(F)F)cc2)c(C#N)c2ccc(O)cc21 [Compound 185]	157 to 160	0.5 to 2	–
CCn1c(C#Cc2ccccc2)c(C#N)c2ccc(O)cc21 [Compound 188]	209 to 212	0.5 to 2	–
CCn1c(C#Cc2cccc(O)c2)c(C#N)c2ccc(C(F)(F)F)cc21 [Compound 196]	187 to 189	0.5 to 2	–
CCn1c(C#Cc2ccc(N)cc2)c(C#N)c2ccc(C(F)(F)F)cc21 [Compound 200]	187 to 189	0.5 to 2	–
CCn1c(C#Cc2ccc(N(C)C)cc2)c(C#N)c2ccc(C(F)(F)F)cc21 [Compound 201]	147 to 150	0.5 to 2	–
CCn1c(C#Cc2cccc(NC(C)=O)c2)c(C#N)c2ccc(OC)cc21 [Compound 205]	181 to 184	0.5 to 2	–
CCC(=O)Nc1cccc(C#Cc2c(C#N)c3ccc(OC)cc3n2CC)c1 [Compound 206]	187 to 191	0.5 to 2	–
CCn1c(C#Cc2cccc(NC(=O)C(C)C)c2)c(C#N)c2ccc(OC)cc21 [Compound 207]	179 to 183	0.5 to 2	–
CCn1c(C#Cc2cccc(NC(=O)C3CC3)c2)c(C#N)c2ccc(OC)cc21 [Compound 211]	186 to 191	0.5 to 2	–
CCn1c(C#Cc2cccc(NC(=O)C3CCC3)c2)c(C#N)c2ccc(OC)cc21 [Compound 213]	165 to 168	0.5 to 2	–
CCn1c(NC(=O)C2CC2)c(C#N)c2ccc(OC)cc21 [Compound 216]	261	0.5 to 2	–
CCn1c(NC(=O)OCC(C)C)c(C#N)c2ccc(OC)cc21 [Compound 217]	272 to 273	< 0.5	–
CCn1c(C#Cc2cccc(NC=O)c2)c(C#N)c2ccc(OC)cc21 [Compound 218]	174 to 177	0.5 to 2	–
CCn1c(C#Cc2cccc(NC(=O)COC)c2)c(C#N)c2ccc(OC)cc21 [Compound 219]	145 to 149	0.5 to 2	–

SMILES	melting point [°C]	IC50 (HCV replicon; read-out: Replicon IC5Os μM) [µM]	IC50 (HCV replicon; read-out: Replicon IC5Os) [µM]
CCn1c(C#Cc2cccc(NC(=O)NCCCl)c2)c(C#N)c2ccc(OC)cc21 [Compound 221]	195 to 200	0.5 to 2	–
COc1ccc2c(C#N)c(C#Cc3ccc(C(C)(C)C)cc3)[nH]c2c1 [Compound 233]	232 to 234	0.5 to 2	–
CCn1c(-c2ccc(NS(C)(=O)=O)cc2)c(C#N)c2cc(OC)ccc21 [Compound 243]	194 to 198	< 0.5	–
CCCS(=O)(=O)Nc1ccc(-c2c(C#N)c3ccc(OC)cc3n2CC)cc1 [Compound 251]	186 to 187	0.5 to 2	–
CCn1c(-c2ccc(NS(=O)(=O)CCCCl)cc2)c(C#N)c2ccc(OC)cc21 [Compound 252]	176 to 177	0.5 to 2	–
CCn1c(-c2ccc(OCCNS(=O)(=O)CC)cc2)c(C#N)c2ccc(OC)cc21 [Compound 269]	153 to 158	0.5 to 2	–
CCn1c(-c2cccc(S(=O)(=O)NC)c2)c(C#N)c2ccc(OC)cc21 [Compound 331]	160 to 165	–	0.5 to 2
CCn1c(-c2ccc3c(c2)oc(=O)n3C)c(C#N)c2ccc(OC)cc21 [Compound 341]	227 to 230	–	0.5 to 2
CCS(=O)(=O)Nc1ccc(-c2c(C#N)c3ccc(OC)cc3n2C)cc1 [Compound 345]	191 to 192	–	0.5 to 2
CCCn1c(-c2ccc(NS(C)(=O)=O)cc2)c(C#N)c2ccc(OC)cc21 [Compound 346]	178 to 180	–	< 0.5
CCn1c(-c2ccc(NS(=O)(=O)CC)cc2)c(C#N)c2ccc(C(F)(F)F)cc21 [Compound 366]	223 to 225	–	< 0.5
CCCS(=O)(=O)Nc1ccc(-c2c(C#N)c3ccc(C(F)(F)F)cc3n2CC)cc1 [Compound 367]	225 to 227	–	0.5 to 2
CCn1c(-c2ccc(NS(=O)(=O)CCCCl)cc2)c(C#N)c2ccc(C(F)(F)F)cc21 [Compound 369]	174 to 177	–	0.5 to 2
CCn1c(-c2ccc(S(N)(=O)=O)cc2)c(C#N)c2cc(Cl)ccc21 [Compound 408]	231 to 235	–	0.5 to 2
CCOc1ccc2c(C#N)c(-c3ccc(NS(C)(=O)=O)cc3)n(C)c2c1 [Compound 413]	184 to 185	–	< 0.5
CCOc1ccc2c(C#N)c(-c3ccc(NS(C)(=O)=O)cc3)n(CC)c2c1 [Compound 415]	163 to 165	–	< 0.5
CCOc1ccc2c(C#N)c(-c3ccc(NS(=O)(=O)CC)cc3)n(CC)c2c1 [Compound 416]	173 to 175	–	< 0.5
CCCn1c(-c2ccc(NS(=O)(=O)CC)cc2)c(C#N)c2ccc(OCC)cc21 [Compound 418]	183 to 184	–	< 0.5
CCn1c(-c2ccc(NC(C)=O)cc2)c(C#N)c2ccc(C(F)(F)F)cc21 [Compound 420]	241 to 243	–	0.5 to 2
CCC(=O)Nc1ccc(-c2c(C#N)c3ccc(C(F)(F)F)cc3n2CC)cc1 [Compound 422]	259 to 261	–	0.5 to 2
CCn1c(-c2ccc(CNS(=O)(=O)CCN3CCOCC3)cc2)c(C#N)c2ccc(OC)cc21 [Compound 668, 2-morpholin-4-yl-ethanesulfonic acid [4-(3-cyano-1-ethyl-6-methoxy-1H-indol-2-yl)-phenyl]methyl amide]	171 to 174	–	–
